Literature values in US20230414697A1, “ENHANCED GINGEROLS FOR PATIENTS SUFFERING FROM NAUSEA AND EMESIS” (Aphios Corporation, priority 2020, published 2023).

Assays:
[1] = ginger 0.5 gm or 1 gm, metochlopramide 10 mg
[2] = post-operative; reported by Bone and colleagues
[3] = 2.0 gm oral ginger, 1.25 mg intravenous droperidol, placebo; 24 hour period following surgery

Structure (SMILES)	post-operative nausea vs placebo ([1]; both studies)	effectiveness for post-operative nausea, ginger compared with metochlopramide ([1]; women undergoing gynecologic surgery, two studies)	frequency of emesis, differences between the three arms (ginger, metochlopramide, placebo, post-operative)	patients nauseated (post operative, placebo 41%)	vomiting vs placebo [2]	differences in frequency or severity of post-operative nausea or frequency of post-operative vomiting [3]
CCN(CC)CCNC(=O)c1cc(Cl)c(N)cc1OC [metochlopramide]	significantly more effective than placebo	equal effectiveness	no significant differences	placebo, 27%	less vomiting	
O=C(CCCN1CC=C(n2c(=O)[nH]c3ccccc32)CC1)c1ccc(F)cc1 [droperidol]						no differences
